From PubChem BioAssay (NCI)
Several values for one entry are separate records, joined by “and”; a condition that tells them apart may be missing. Identical values can stand only once.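 Interpolation was linear, between the two tested concentrations surrounding the appropriate level; five concentrations were tested over 48 hours in 96-well plates. At the GI50, growth is halved. At the TGI there is no net growth.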

How the values were obtained:
Experiment in all cases: DTP human tumour cell line panel, 48 h
[1] = test system: SN12C renal
[2] = test system: COLO 205 colon
[3] = test system: SK-MEL-28 melanoma
[4] = test system: CAKI-1 renal
[5] = test system: OVCAR-4 ovarian
[6] = test system: NCI-H23 lung
[7] = test system: RPMI-8226 leukemia
[8] = test system: M14 melanoma
[9] = test system: SW-620 colon
[10] = test system: HS 578T breast

| SMILES | GI50 [1] | TGI [1] [µM] | GI50 [2] | TGI [2] | GI50 [3] | TGI [3] [µM] | GI50 [4] | TGI [4] [µM] | GI50 [5] | TGI [5] | GI50 [6] | TGI [6] | GI50 [7] | TGI [7] [µM] | GI50 [8] | TGI [8] [µM] | GI50 [9] | TGI [9] [µM] | GI50 [10] | TGI [10] [µM] |
| --- | --- | --- | --- | --- | --- | --- | --- | --- | --- | --- | --- | --- | --- | --- | --- | --- | --- | --- | --- | --- |
| CC(=O)c1ccc2c(c1)c1cc(C(C)=O)ccc1n2CCNC(C)C | 325 nM | 2.07 | 331 nM | 1.6 µM | 0.326 µM | 1.47 | 304 nM | 10.5 | 370 nM | 2.9 µM | 0.389 µM | 2.41 µM | 308 nM | 1.05 | 358 nM | 1.72 | 249 nM | 2.34 | 0.828 µM | 4.77 |
| OCCN1CCN(CCCN2c3ccccc3Sc3ccc(Cl)cc32)CC1 | 3420 nM | 14.2 | 1610 nM | 3 µM | 1.84 µM | 3.31 | 1710 nM | 4.52 | 4490 nM | 17.4 µM | 3.83 µM | 18 µM | 2290 nM | 6.7 | 1880 nM | 3.6 | 1770 nM | 3.52 | 1.98 µM | 5.71 |
| Cc1cc(S(=O)(=O)Nc2nc3ccccc3o2)c(SCc2ccccc2)cc1Cl | 32100 nM | 90.1 | 22100 nM | 51.1 µM | 25.6 µM | 62.9 | 19600 nM | 47.3 | 25400 nM | 67.9 µM | 19 µM | 40.3 µM | 11200 nM | 30.1 | 17500 nM | 38 | 20600 nM | 56.4 | 29.5 µM | 78.9 |
| CCOC(=O)c1cc(C(=O)c2cc(OC)c(OC)c(OC)c2)n2ncccc12 | 821 nM | > 100 | 230 nM | 1.33 µM | 4.68 µM | > 100 | 374 nM | > 100 | 805 nM | > 100 µM | 0.707 µM | > 100 µM | 316 nM | – | 229 nM | > 100 | 185 nM | > 100 | 0.309 µM | 26.1 |
| CCN1C/C(=C\c2cc(OC)c(OC)cc2OC)C(=O)/C(=C/c2cc(OC)c(OC)cc2OC)C1 | 3110 nM | 9.14 | 2310 nM | 5.43 µM | 2.48 µM | 5.6 | 2980 nM | 6.82 | 3730 nM | > 100 µM | 3.43 µM | 15.4 µM | 2350 nM | 6.78 | 2300 nM | 5.37 | 3200 nM | 13.3 | 3.34 µM | 79.5 |
| COc1cc(/C=C\c2cc(OC)c(OC)c(OC)c2)cc(N/C=C\C(=O)c2ccc(OC(F)(F)F)cc2)c1OC | 4850 nM | > 100 | 2980 nM | 9.37 µM | 10.4 µM | > 100 | 4960 nM | > 100 | 7540 nM | > 100 µM | 4.38 µM | > 100 µM | 3660 nM | 19.6 | 3460 nM | > 100 | 4090 nM | > 100 | 6.44 µM | > 100 |
| COc1ccc(C2CC(c3cccc(Nc4ccnc5cc(Cl)ccc45)c3)=NN2C=O)cc1 (centres undefined) | 807 nM | > 100 | 484 nM | 2.95 µM | 1.13 µM | 25.6 | 394 nM | 29.2 | 940 nM | > 100 µM | 0.967 µM | > 81.6 µM | 3640 nM | > 24 | 374 nM | 21.2 | 333 nM | > 100 | 0.367 µM | 16.9 |
| COC(=O)c1n[nH]c(C)c1N=NN(C)CCC#N | – | 33.8 | – | 26.9 µM | – | > 100 | – | 33.4 | – | 30.7 µM | – | 36.5 µM | – | 34.9 | – | > 100 | – | 34 | – | 52 |
| c1cc(NNc2cccc(-c3nn[nH]n3)c2)cc(-c2nn[nH]n2)c1 | – | > 100 | – | > 100 µM | – | > 100 | – | > 100 | – | > 100 µM | – | > 100 µM | – | > 100 | – | > 100 | – | > 100 | – | > 100 |
| Nc1nccc(-c2c(-c3ccc(F)cc3)ncn2C2CCNCC2)n1 | 7710 nM and 2130 nM | > 25 | 623 nM and 1010 nM | > 7.09 µM and 11.1 µM | 10.2 µM and 8.41 µM | > 25 | > 25000 nM and 7290 nM | > 25 | 1860 nM and 2770 nM | > 25 µM and 13.1 µM | 9.71 µM and 4.41 µM | > 25 µM and 18.8 µM | 12600 nM and 7070 nM | > 25 | 13300 nM and 3850 nM | > 25 | 4250 nM and 1380 nM | > 25 | > 18.3 µM and 5.54 µM | > 25 |
| CCN(CC)c1ccc(/C=N/NC(=O)CSc2nc3ccccc3c(=O)n2CCc2ccc(S(N)(=O)=O)cc2)c(O)c1 | 1860 nM | > 100 | 3220 nM | > 100 µM | 2.69 µM | > 100 | 1840 nM | > 100 | 549 nM | > 100 µM | 2.99 µM | > 100 µM | 417 nM | 2.44 | 754 nM | 7.2 | 3120 nM | > 100 | 3.02 µM | > 100 |
| CC(C)c1[nH]nc(C(N)=O)c1N=NN(C)C | – | > 100 | – | > 100 µM | – | > 100 | – | 65.4 | – | > 100 µM | – | > 100 µM | – | > 100 | – | > 100 | – | > 100 | – | > 100 |
| CCN(Cc1ccc(C)cc1)c1ccc(CO)c(Cl)c1 | 10600 nM | 25.8 | 996 nM | 4.05 µM | 13.3 µM | 26.2 | 721 nM | 9.27 | 274 nM | 4.11 µM | 9.95 µM | 25.3 µM | 3320 nM | 30.6 | 10500 nM | 23.7 | 763 nM | 16.5 | 12.5 µM | 38.2 |
| COc1ccc2c(c1OC)C[C@@H]1c3c(cc4c(c3-2)OCO4)CCN1C | – | > 100 | – | 40.3 µM | – | > 100 | – | > 100 | – | > 100 µM | – | > 100 µM | – | 42.9 | – | 84.8 | – | > 100 | – | > 100 |
| CC(=O)O[C@H]1C(=O)[C@@]2(C)C(C(OC(=O)c3ccccc3)[C@]3(O)C[C@H](OC(=O)C(OC(=O)CCCC(=O)NCCCN(C)C)C(NC(=O)c4ccccc4)c4ccccc4)C(C)=C1C3(C)C)C1(OC(C)=O)COC1C[C@@H]2O (some centres undefined) | – | 75.5 | – | 0.0147 µM | – | 55.5 | – | > 100 | – | > 87.9 µM | – | 18.2 µM | – | 28.7 | – | 25 | – | 22.4 | – | 0.0151 |
| COc1ccc(/C=C(/C#N)C(N)=O)c(OC)c1 | – | > 100 | – | > 100 µM | – | > 100 | – | > 100 | – | > 100 µM | – | > 100 µM | – | > 100 | – | > 100 | – | > 100 | – | > 100 |
| COc1cc(Nc2nc3cc(N)cc(N)c3nc2-c2ccccc2)cc(OC)c1OC | 20400 nM | 83.7 | 14000 nM | 27.1 µM | 1.45 µM | 20.7 | 15500 nM | 48.5 | 31.3 nM | 0.892 µM | 24.9 µM | 76.7 µM | 12400 nM | 32.4 | 19600 nM | 44.9 | 24100 nM | > 100 | 15 µM | 78.1 |
| C=C1CC[C@@H]2[C@](C)(COC(C)=O)[C@H](OC(C)=O)CC[C@@]2(C)[C@@H]1CC(Nc1ccc(S(=O)(=O)NC(C)=O)cc1)C1=CCOC1=O (some centres undefined) | 1780 nM | 5.4 | 1810 nM | 4.82 µM | 3.69 µM | 13.2 | 3310 nM | 11.2 | 4140 nM | 13.7 µM | 5.52 µM | 17.4 µM | 1840 nM | 6.53 | 2860 nM | 11.9 | 1610 nM | 3.58 | 8.45 µM | 38.8 |
| COc1ccc(/C=C/C(=O)c2cc(OC)c(OC)c(OC)c2)cc1OCC(=O)Nc1nc2ccc(OC(F)(F)F)cc2s1 | 1740 nM | 4.67 | 6370 nM | 39.8 µM | 3.31 µM | 25.9 | 2200 nM | 6.03 | 2070 nM | 5.14 µM | 2.15 µM | 6.2 µM | 2020 nM | > 100 | 1720 nM | 4.52 | 1080 nM | > 100 | 3.08 µM | > 100 |
| Cc1cc2nc3c4cc(O)ccc4n(CCN(C)C)c3nc2cc1C | 586 nM | 12.4 | 698 nM | 3.99 µM | 1.56 µM | 3.16 | 337 nM | 2.11 | 1340 nM | 3.63 µM | 0.833 µM | 3.35 µM | 417 nM | 2.63 | 523 nM | 1.91 | 404 nM | 1.8 | 1.49 µM | 5.41 |
